# Measured values published in EP2455756A1, “Cell-based screening assay for inhibitors of NET formation” (Max-Planck-Gesellschaft zur Förderung der Wissenschaften …, priority 2010, dated 2012).
# “Also recorded” adds a separate entry of the source.
# Legend:
# [1] = tested on: neutrophils; assay: Nuclear area and nuclear morphology (perimeter vs. Heywood circularity factor) of activated neutrophils, Sytox Green staining, automated microscopy; assay type: cell-based, Human
# Experimental: During NET formation there are discrete changes in nuclear size and shape. According to the invention four distinct nuclear morphologies were defined (Fig. 1) (i) lobulated, (ii) delobulated, (iii) diffused NETs and (iv) spread NETs. […] The nuclear morphology, i.e. the morphology of the nuclear DNA was analyzed in more detail by plotting the perimeter vs. the Heywood circularity factor.
# In contrast, most nuclei of neutrophils activated for 240 min, had diffused nuclei, or spread NETs that could be measured by their large perimeter and low Heywood circularity factor (Fig. 3b).
# For nuclear size and shape, neutrophils were activated with PMA for 240 min, fixed with PFA (2%), permeabilized with Triton X100 (0.1%) and stained with Sytox Green. The four distinct nuclear morphologies during the progression to NET formation are lobulated, delobulated or diffused NETs and spread NETs (Fig.1). Bar=10 µm
# Neutrophils were activated with PMA (40nM). Fifteen min after activation the nuclei were homogenous and smaller than 100 µm^2 in area while the nuclei of activated neutrophils were heteregenous and between 150 and more than 350 µm^2 (Figs. 3). Each dot in Figs. 3 (Dot plot of nuclei analyzed for perimeter vs. Heywood circularity factor) represents a nucleus. Gates were set to distinguish between lobulated, delobulated, diffused NETs and spread NETs.
# In Fig. 3a fifteen min after activation, more than 95% of the nuclei were either lobulated or delobulated. […] The images were generated by an automated microscopy system and analyzed by image analysis software Scan ^R.
# [2] = tested on: neutrophils; assay: Quantification of cell viability with Sytox Green, fluorometer; assay type: cell-based, Human; details: PMA (40 nM) for 240 min, Sytox Green (2µM)
# Experimental: Neutrophils were activated with PMA (40 nM) for 15 min and 240 min, stained with the vital dye Sytox Green (2µM) and analyzed with a fluorometer. […] Different numbers of neutrophils per well were plated and activated with PMA for 240 min or incubated with the non ionic detergent NP-40.
smiles,measurement,setting,value
"CCCCCCCCCCCCCC(=O)O[C@@H]1[C@@H](C)[C@@]2(O)[C@@H](C=C(CO)C[C@]3(O)C(=O)C(C)=C[C@@H]23)[C@@H]2C(C)(C)[C@]12OC(C)=O [PMA, phorbol-12-myristate-13-acetate]",nuclei either diffused or already made NETs,[1]; 240 min after activation with PMA (40nM),more than 95%
same,nuclei either lobulated or delobulated,[1]; fifteen min after activation with PMA (40nM),more than 95%
same,nuclear area (mean),"[1]; neutrophils activated with PMA (40 nM) for 240 min, SD: 109µm^2, n: 2000",244 µm^2
same,cell death (Sytox Green fluorescence),[2],"fluorescent, indicating cell death; also recorded: most cells die after activation"
